{"source": "paper PMC5595280", "about": "“Cytotoxicity and anti-tumor effects of new ruthenium complexes on triple negative breast cancer cells” (PLoS ONE, 2017)", "key": {"[1]": {"tested_on": "Caspase-3, Caspase-9 and Bcl-2 protein levels in MDA-MB-231 cells", "experiment": "Western blotting of apoptosis related proteins", "type": "cell-based, human", "conditions": "even at 2.5 μM, 6 h", "procedure": "MDA-MB-231 cells (1.0 x 10^6/plate) were incubated for 6 h with (2.5, 5 and 10μM) or without (control) the complex (4) in Petri dishes (6 cm) at 37°C in a humidified incubator with 5% CO2. After incubation, cells were lysed using RIPA buffer (150 mM NaCl; 50 mM Tris-HCl pH 7.4; 50 mM NaF; 2 mM EDTA; 1.0% NP-40; 0.5 mM Na-deoxycholate; 0.1% SDS, pH 8.0) and the content was transferred to a 1.5 mL microtube. Protein concentrations of supernatants were determined using DC Protein Assay kit (Bio-Rad). […] Beta-actin was used as endogenous control. Substrate development was performed using SuperSignal West Dura Extended Substrate reagent (Thermo Scientific). Specific bands were visualized with ChemiDoc MP imager (BioRad Laboratories) and quantified with Image J software, normalized to β-actin."}, "HSA": {"biological_target": "HSA (Homo sapiens, UniProt P02768)", "sequence (P02768 25-609)": "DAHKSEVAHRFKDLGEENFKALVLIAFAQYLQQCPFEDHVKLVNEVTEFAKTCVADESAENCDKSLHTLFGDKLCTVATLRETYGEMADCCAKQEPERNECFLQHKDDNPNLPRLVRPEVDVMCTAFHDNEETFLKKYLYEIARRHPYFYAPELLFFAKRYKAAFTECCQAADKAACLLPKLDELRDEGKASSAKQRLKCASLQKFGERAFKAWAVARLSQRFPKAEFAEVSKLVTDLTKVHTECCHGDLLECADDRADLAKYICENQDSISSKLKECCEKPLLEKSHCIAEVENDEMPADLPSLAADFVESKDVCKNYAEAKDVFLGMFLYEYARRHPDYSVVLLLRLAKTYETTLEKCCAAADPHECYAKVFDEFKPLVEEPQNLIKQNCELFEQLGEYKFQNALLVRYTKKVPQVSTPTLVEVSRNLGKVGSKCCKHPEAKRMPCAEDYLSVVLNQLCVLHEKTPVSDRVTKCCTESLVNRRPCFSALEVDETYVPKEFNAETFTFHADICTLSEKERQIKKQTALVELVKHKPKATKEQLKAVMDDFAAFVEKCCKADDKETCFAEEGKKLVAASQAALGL", "experiment": "HSA tryptophan fluorescence quenching", "type": "binding", "procedure": "For fluorescence measurements, the HSA concentration in Tris–HCl buffer was kept constant in all the samples, while the complex concentration was increased from 0.50 to 50 μM, and quenching of the emission intensity of the HSA tryptophan residues at 305 nm (excitation wavelength 270 nm) was monitored at different temperatures (25°C and 37°C). The experiments were carried out in triplicate and analysed using the classical Stern-Volmer equation. The binding constant (Kb) and number of complexes bound to HSA (n) were determined by plotting the double log graph of the fluorescence data using: log [(F0-F)/F] = log Kb + nlog[Q]. The thermodynamic parameter (ΔH) was calculated from equation: ln (K2/K1) = [(1/T1)-(1/T2)]ΔH/R, where K1 and K2 are the binding constants at temperatures T1 and T2, and R is the gas constant. Furthermore, the change in free energy (ΔG) and entropy (ΔS) were calculated from the following equation: ΔG = -RT lnK = ΔH − TΔS.\nHuman serum albumin (HSA) is the most abundant protein in the blood and cerebrospinal fluid and plays a fundamental role in the distribution of essential transition metal ions in the human body. Moreover, HSA is an important physiological transporter of the essential metal ions Cu^2+, and Zn^2+ in the bloodstream. […] The fluorescence spectrum is essentially that of tryptophan residue; contribution of tyrosine is relatively minor. In order to determine the protein binding affinity of complexes (1–4), tryptophan emission quenching experiments were carried out by adding the complexes in increasing concentration (0–50 μM) to HSA at two different temperatures and following the decrease in fluorescence intensities (Fig 6D). The results point out a good linearity at the two different temperatures. The binding constants, KSV, calculated from the Stern-Volmer equation are presented on Table 2."}, "MDA-MB-231 cells [2]": {"tested_on": "MDA-MB-231 cells", "experiment": "Colony formation (clonogenic) assay", "type": "cell-based, human", "conditions": "3 h treatment, 10 days", "procedure": "Exponentially growing MDA-MB-231 cells were harvested, counted and seeded (300 cells/plate) into Petri dishes. Cells were allowed to grow at 37°C in 5% CO2 overnight and then, treated with different concentrations of complex (4) for 3 h. After this time, the medium was changed to a fresh medium without any complex. After incubation for additional 10 days the cells were rinsed with PBS, fixed with methanol and acid acetic 3:1 for 5 min and stained with methanol and crystal violet 5% for 15min. Relative survival was calculated from the number of single cells that formed colonies of >50 cells on the tenth day."}, "[3]": {"experiment": "Water-octanol partition coefficient (stir-flask method)", "type": "physicochemical", "conditions": "24 h shaking, 37°C", "procedure": "The water-octanol partition coefficients were determined by use of the stir-flask method. The complex was added in a mixture with equal volumes of water and octanol shaking by 24 h at 100 rpm and 37°C, samples were centrifuged for 5min at 300rpm, the organic and aqueous phases were separated. The concentration of drug in each phase was measured spectrophotometrically in order to determine values of P = [drug] (in octanol)/[drug] (in water)."}, "pBR322 plasmid DNA": {"tested_on": "pBR322 plasmid DNA", "experiment": "Agarose gel electrophoresis of plasmid DNA", "type": "binding", "conditions": "Ri 0.50, 18 h, 37°C", "procedure": "Ten microliters of pBR322 plasmid DNA in a Tris-HCl buffer were incubated at 37°C for 18 h with molar ratios between 0.12 and 0.5. After incubation, 5 μL of each sample was separated by electrophoresis in a 1% agarose gel for 45 min at 100V using a Tris borate–EDTA buffer (TBE) and stained with ethidium bromide ([…] ethidium bromide per 40 mL agarose gel mixture). Samples of DNA with DMSO were used as controls. The DNA bands were visualized as an image using a UV light transilluminator (ChemiDoc MP, BioRad Laboratories).\nThe influence of the compounds on the tertiary structure of DNA was determined by their ability to modify the electrophoretic mobility of forms of pBR322 plasmid DNA (Fig 6C). Agarose gel electrophoresis was performed using pBR322 plasmid DNA in the absence and presence of the complexes. […] In Ri 0.12 and 0.25 complexes (1–3) show the corresponding open circular, linear and super coiled form. […] This means that the degree of super helicity of the DNA molecules has been altered, in the same way as that described previously for other coordination platinum(II) and palladium (II) compounds containing 7-azaindolyl ligand [36]."}, "MDA-MB-231 cells [4]": {"tested_on": "MDA-MB-231 cells", "experiment": "Matrigel transwell invasion assay", "type": "cell-based, human", "conditions": "20 μM, 22 h", "procedure": "The effect of different concentrations of complex (4) 5, 10 μM and 20 μM on MDA-MB-231 tumor cell invasiveness was determined by the ability to transmigrate through a layer of matrigel in a transwell chamber (BD Biosciences) as described earlier. Wells were rehydrated with the addition of 1mL of warm (37°C) incomplete culture medium for 2 h. MDA-MB-231 cells (0.5 x 10^5/350 μL) were loaded on the top of matrigel in a DMEM incomplete medium. DMEM medium supplemented with 10% FBS was placed on the bottom chamber of the transwell units. Twenty-two hours later, cells that remained in the upper chamber were removed using a cotton swab and invasive cells were fixed with methanol and stained with 1% toluidine blue. The invaded cells were quantified by manual counting and inhibition ratio was expressed as % of control."}}}
{"smiles": "CC(=O)[O-].F[P-](F)(F)(F)(F)F.[Ru+2].c1ccc(-c2ccccn2)nc1.c1ccc(P(CCCCP(c2ccccc2)c2ccccc2)c2ccccc2)cc1", "note": "[Complex (4), [Ru(CH3CO2)(dppb)(bipy)]PF6]", "values": [{"measurement": "cleaved Caspase-3 protein levels", "setting": "[1]", "value": "increased"}, {"measurement": "cleaved Caspase-9 protein levels", "setting": "[1]", "value": "increased"}, {"measurement": "Kq (HSA)", "setting": "HSA; T 298", "value": "4.95e+13", "unit": "M⁻¹ s⁻¹"}, {"measurement": "Ksv (HSA)", "setting": "HSA; T 298", "value": "4.74 ± 0.70 x10^4 M^-1"}, {"measurement": "n (number of binding sites, HSA)", "setting": "HSA; T 298", "value": 1.20}, {"measurement": "ΔS (HSA)", "setting": "HSA; complex-HSA system", "value": 110.13, "unit": "J.mol^-1K"}, {"measurement": "ΔH (HSA)", "setting": "HSA; from binding constants at 298 and 310", "value": 0.359, "unit": "kcal/mol"}, {"measurement": "effect on colony formation", "setting": "MDA-MB-231 cells [2]; 20 μM", "value": "completely abolished the capacity of breast tumor cells to form colonies"}, {"measurement": "effect on colony number and size", "setting": "MDA-MB-231 cells [2]; 2.5, 5, 10 and 20 μM", "value": "significantly inhibited the colony number and size"}, {"measurement": "Log P", "setting": "[3]", "value": "0.77 ± 0.03"}, {"measurement": "electrophoretic mobility of super coiled pBR322 band", "setting": "pBR322 plasmid DNA", "value": "increased the electrophoretic mobility"}, {"measurement": "inhibition of invasion compared to control", "setting": "MDA-MB-231 cells [4]", "value": "approximately 80%"}]}
